Measured values taken from the supplement of paper PMC10307832.

Columns and labels:
Assay in all cases: relative viability (nuclei count vs DMSO), 5 days (fraction); higher = more cells survive
[1] = system: PC-14
Outline: (§1)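 Relative viability equals treated-well nuclei counts divided by vehicle-well nuclei counts. Counts came from 4× images of lung cancer cell lines grown in 1536-well plates for 5 days after pin-tool dosing on the day after seeding. Dosing used one drug alone or a fixed anchor-drug dose plus five library-drug doses (not always all listed) in √10 steps, and values are medians of duplicate plates.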

[2] = system: SK-LU-1
Outline: as §1

[3] = system: EKVX
Outline: as §1

[4] = system: NCI-H1792
Outline: as §1

[5] = system: NCI-H520
Outline: as §1

[6] = system: A-427
Outline: as §1

[7] = system: HCC-827
Outline: as §1

[8] = system: NCI-H2087
Outline: as §1

[9] = system: NCI-H3122
Outline: as §1

[10] = system: NCI-H1437
Outline: as §1

[11] = system: ABC-1
Outline: as §1

[12] = system: LCLC-103H
Outline: as §1

[13] = system: COR-L23
Outline: as §1

[14] = system: 201T
Outline: as §1

[15] = system: SW 1573
Outline: as §1

[16] = system: NCI-H1666
Outline: as §1

[17] = system: EPLC-272H
Outline: as §1

[18] = system: HCC-44
Outline: as §1

[19] = system: NCI-H2023
Outline: as §1

[20] = system: RERF-LC-KJ
Outline: as §1

[21] = system: SW 900
Outline: as §1

[22] = system: NCI-H2009
Outline: as §1

[23] = system: COR-L 105
Outline: as §1

[24] = system: EMC-BAC-2
Outline: as §1

[25] = system: LU99A
Outline: as §1

Nc1cccc2c1CN(C1CCC(=O)NC1=O)C2=O (stereo not given) [Lenalidomide] + N=C(N)NC(=N)NCCc1ccccc1 [Phenformin] (partner 250 µM)
relative viability ([1]; first compound 0.253 µM): 0.637
relative viability ([1]; first compound 0.8 µM): 0.454
relative viability ([1]; first compound 2.53 µM): 0.606
relative viability ([1]; first compound 8 µM): 0.548
relative viability ([2]; first compound 0.253 µM): 0.539
relative viability ([2]; first compound 0.8 µM): 0.595
relative viability ([2]; first compound 2.53 µM): 0.693
relative viability ([2]; first compound 8 µM): 0.472
relative viability ([3]; first compound 0.253 µM): 0.23
relative viability ([3]; first compound 0.8 µM): 0.211
relative viability ([3]; first compound 2.53 µM): 0.241
relative viability ([3]; first compound 8 µM): 0.196
relative viability ([4]; first compound 0.253 µM): 0.369
relative viability ([4]; first compound 2.53 µM): 0.574
relative viability ([4]; first compound 8 µM): 0.189
relative viability ([5]; first compound 0.253 µM): 0.579
relative viability ([5]; first compound 0.8 µM): 0.481
relative viability ([5]; first compound 2.53 µM): 0.658
relative viability ([5]; first compound 8 µM): 0.257
relative viability ([6]; first compound 0.253 µM): 0.317
relative viability ([6]; first compound 0.8 µM): 0.324
relative viability ([6]; first compound 2.53 µM): 0.421
relative viability ([6]; first compound 8 µM): 0.311
relative viability ([7]; first compound 0.253 µM): 0.408
relative viability ([7]; first compound 0.8 µM): 0.425
relative viability ([7]; first compound 2.53 µM): 0.432
relative viability ([7]; first compound 8 µM): 0.437
relative viability ([8]; first compound 0.253 µM): 0.416
relative viability ([8]; first compound 0.8 µM): 0.372
relative viability ([8]; first compound 2.53 µM): 0.505
relative viability ([8]; first compound 8 µM): 0.477
relative viability ([9]; first compound 0.253 µM): 0.379
relative viability ([9]; first compound 0.8 µM): 0.387
relative viability ([9]; first compound 2.53 µM): 0.395
relative viability ([9]; first compound 8 µM): 0.457
relative viability ([10]; first compound 0.253 µM): 0.276
relative viability ([10]; first compound 0.8 µM): 0.248
relative viability ([10]; first compound 2.53 µM): 0.839
relative viability ([10]; first compound 8 µM): 0.363
relative viability ([11]; first compound 0.253 µM): 0.209
relative viability ([11]; first compound 0.8 µM): 0.216
relative viability ([11]; first compound 2.53 µM): 0.27
relative viability ([11]; first compound 8 µM): 0.258
relative viability ([12]; first compound 0.253 µM): 0.364
relative viability ([12]; first compound 0.8 µM): 0.327
relative viability ([12]; first compound 2.53 µM): 0.352
relative viability ([12]; first compound 8 µM): 0.257
relative viability ([13]; first compound 0.253 µM): 0.412
relative viability ([13]; first compound 0.8 µM): 0.412
relative viability ([13]; first compound 2.53 µM): 0.508
relative viability ([13]; first compound 8 µM): 0.45
relative viability ([14]; first compound 0.253 µM): 0.448
relative viability ([14]; first compound 2.53 µM): 0.444
relative viability ([14]; first compound 8 µM): 0.404
relative viability ([15]; first compound 0.253 µM): 0.432
relative viability ([15]; first compound 0.8 µM): 0.43
relative viability ([15]; first compound 2.53 µM): 0.347
relative viability ([15]; first compound 8 µM): 0.345
relative viability ([16]; first compound 0.253 µM): 0.331
relative viability ([16]; first compound 2.53 µM): 0.635
relative viability ([16]; first compound 8 µM): 0.527
relative viability ([17]; first compound 0.253 µM): 0.282
relative viability ([17]; first compound 0.8 µM): 0.341
relative viability ([17]; first compound 2.53 µM): 0.318
relative viability ([17]; first compound 8 µM): 0.224
relative viability ([18]; first compound 0.253 µM): 0.272
relative viability ([18]; first compound 2.53 µM): 0.184
relative viability ([18]; first compound 8 µM): 0.216
relative viability ([19]; first compound 0.253 µM): 0.405
relative viability ([19]; first compound 0.8 µM): 0.522
relative viability ([19]; first compound 2.53 µM): 0.431
relative viability ([19]; first compound 8 µM): 0.407
relative viability ([20]; first compound 0.253 µM): 0.403
relative viability ([20]; first compound 0.8 µM): 0.463
relative viability ([20]; first compound 2.53 µM): 0.431
relative viability ([20]; first compound 8 µM): 0.441
relative viability ([21]; first compound 0.253 µM): 0.583
relative viability ([21]; first compound 2.53 µM): 0.747
relative viability ([21]; first compound 8 µM): 0.688
relative viability ([22]; first compound 0.253 µM): 0.454
relative viability ([22]; first compound 0.8 µM): 0.517
relative viability ([22]; first compound 2.53 µM): 0.518
relative viability ([22]; first compound 8 µM): 0.528
relative viability ([23]; first compound 0.253 µM): 0.464
relative viability ([23]; first compound 0.8 µM): 0.523
relative viability ([23]; first compound 2.53 µM): 0.554
relative viability ([23]; first compound 8 µM): 0.513
relative viability ([24]; first compound 0.253 µM): 0.527
relative viability ([24]; first compound 0.8 µM): 0.525
relative viability ([24]; first compound 2.53 µM): 0.598
relative viability ([24]; first compound 8 µM): 0.459
relative viability ([25]; first compound 0.253 µM): 0.76
relative viability ([25]; first compound 0.8 µM): 0.875
relative viability ([25]; first compound 2.53 µM): 0.96
relative viability ([25]; first compound 8 µM): 0.564
